Assay results reported in patent US6956059B2, “Anti-inflammatory and immunomodulatory amino acid derivatives, their preparation and use” (Croda International, plc, priority 2001, dated 2005).

System: blood-brain barrier
Experiment: transport across the blood-brain barrier (methodology of Dehouck et al); cytotoxicity observation
Assay type: cell-based
Details: used at the concentration of 5 μm/l; blood-brain barrier transport experiments
Protocol: In accordance with the methodology described by Dehouck et al in J Cont Rel 81-91 (1992), experiments were performed to study the transport of the compound of Example 2 across the blood-brain barrier.

For `CCCCCCCC/C=C\CCCCCCCCCCCCCC(=O)NCCCC[C@H](NC(=O)CCCCCCCCCCCCC/C=C\CCCCCCCC)C(=O)OCC` [Example 2, Nα,Nε-di-(z-15-tetracosenoyl)-L-lysine ethyl ester], the cytotoxicity was “not cytotoxic”.
